These results are taken from ChEMBL document CHEMBL1136981, “Carbamates as potent calcitonin gene-related peptide antagonists with improved solution stability” (Bioorg Med Chem Lett, 2009).

Usually IC50 stands for the midpoint of a concentration-inhibition curve. Usually solubility stands for the concentration that dissolves in the medium under given conditions.

Data set [1] addresses Calcitonin gene-related peptide type 1 receptor (Homo sapiens, UniProt Q16602). Briefly: Binding affinity to human CGRP receptor.
The nature of data set [2]: Hydrolytic stability assessed as formation of 8-fluoro-3-(piperidin-4-yl)-3,4-dihydroquinazolin-2(1H)-one in 0.05 M buffer at pH 5 after 12 weeks. Type of data set: physicochemical. The arrangement: scale not given: the % may be the effect or the level left. The following applies: pH 5, 2016 h.
Data set [3] in a line: Oxidative stability assessed as formation of N-((R)-1-(1,4'-bipiperidin-1'-yl)-3-(7-methyl-1H-indazol-5-yl)-1-oxopropan-2-yl)-4-(8-fluoro-4-hydroxy-2-oxo-1,2-dihydroquinazolin-3(4H)-yl)piperidine-1-carboxamide in 0.05 M buffer at pH 5 after 12 weeks. Type of data set: physicochemical. As to conditions: pH 5, 2016 h.
Data set [4] in a line: Hydrolytic stability assessed as formation of (R)-2-(4-(8-fluoro-2-oxo-1,2-dihydroquinazolin-3(4H)-yl)piperidine-1-carboxamido)-3-(7-methyl-1H-indazol-5-yl)propanoic acid in 0.05 M buffer at pH 5 after 12 weeks. The following applies: pH 5, 2016 h. The format is physicochemical. More on the design: scale not given: the % may be the effect or the level left.
A short description of data set [5]: Oxidative stability assessed as compound remaining in water at 0.15 mg/mL at pH 4 after 48 hrs in presence of free radical generator AAPH. Type of data set: physicochemical. The following applies: read-out: Activity.
The nature of data set [6]: Hydrolytic stability assessed as compound remaining in water at 0.15 mg/mL at pH 4 after 4 weeks. Type of data set: physicochemical. As to conditions: read-out: Activity.
Data set [7] in a line: Solubility at pH 7. The format is physicochemical. As to conditions: buffer.

Calcitonin gene-related peptide type 1 receptor, sequence (Q16602 whole entry): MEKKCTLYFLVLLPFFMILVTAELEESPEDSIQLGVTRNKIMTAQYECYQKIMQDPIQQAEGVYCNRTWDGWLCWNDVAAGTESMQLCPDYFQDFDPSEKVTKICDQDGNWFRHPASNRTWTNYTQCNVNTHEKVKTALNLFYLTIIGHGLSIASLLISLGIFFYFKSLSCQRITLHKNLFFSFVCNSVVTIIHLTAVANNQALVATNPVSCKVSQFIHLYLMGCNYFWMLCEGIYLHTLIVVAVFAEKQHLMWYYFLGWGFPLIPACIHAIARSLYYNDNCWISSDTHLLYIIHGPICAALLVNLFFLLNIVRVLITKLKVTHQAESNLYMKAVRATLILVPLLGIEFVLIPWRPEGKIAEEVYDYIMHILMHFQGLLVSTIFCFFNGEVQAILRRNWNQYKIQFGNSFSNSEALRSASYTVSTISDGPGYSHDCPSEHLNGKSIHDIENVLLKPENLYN

Turning to `Cc1cc(C[C@@H](OC(=O)N2CCC(c3cc4ccccc4[nH]c3=O)CC2)C(=O)N2CCN(C3CCCCC3)CC2)cc2cn[nH]c12`, the IC50 in data set [1] stood at 0.02 nM.
As for `Cc1cc(C[C@@H](NC(=O)N2CCC(N3Cc4cccc(F)c4NC3=O)CC2)C(=O)N2CCC(N3CCCCC3)CC2)cc2cn[nH]c12`, the Activity in data set [2] is 0.4%; in data set [3] it was 2%; in data set [4] it was 0.2%. Also, the remaining at 48 h, 0.15 mg/mL in data set [5] stood at 72%. In addition, the remaining at 672 h, 0.15 mg/mL in data set [6] was 56%.
On to `Cc1cc(C[C@@H](OC(=O)N2CCC(N3Cc4ccc(F)cc4NC3=O)CC2)C(=O)N2CCC(N3CCCCC3)CC2)cc2cn[nH]c12`, for which the IC50 in data set [1] was found to be 0.022 nM.
As for `Cc1cc(C[C@@H](OC(=O)N2CCC(c3cc4cccc(F)c4[nH]c3=O)CC2)C(=O)N2CCC(N3CCCCC3)CC2)cc2cn[nH]c12`, the IC50 in data set [1] is 0.057 nM.
For the molecule `Cc1cc(C[C@@H](OC(=O)N2CCC(N3Cc4ccccc4NC3=O)CC2)C(=O)N2CCC(N3CCCCC3)CC2)cc2cn[nH]c12`, in data set [1], the IC50 was 0.01 nM.
On the same count and under the same terms, under `Cc1cc(C[C@@H](OC(=O)N2CCC(c3cc4ccccc4[nH]c3=O)CC2)C(=O)N2CCC(N3CC=CCC3)CC2)cc2cn[nH]c12` stands 0.053 nM.
Still for that read-out and setting: under `Cc1cc(C[C@@H](OC(=O)N2CCC(c3cc4ccccc4cn3)CC2)C(=O)N2CCC(N3CCCCC3)CC2)cc2cn[nH]c12` stands 0.18 nM.
Still for that read-out and setting: next, `Cc1cc(C[C@@H](OC(=O)N2CCC(c3cc4ccccc4[nH]c3=O)CC2)C(=O)N2CCCCC2)cc2cn[nH]c12`: 1.8 nM; `Cc1cc(C[C@@H](OC(=O)N2CCC(c3cc4ccccc4[nH]c3=O)CC2)C(=O)N2CCC3(CCN(C)CC3)CC2)cc2cn[nH]c12`: 0.044 nM.
With `Cc1cc(C[C@@H](OC(=O)N2CCC(n3cc(-c4ccccc4)[nH]c3=O)CC2)C(=O)N2CCC(N3CCCCC3)CC2)cc2cn[nH]c12`, the IC50 in data set [1] came out at 0.068 nM.
On to `Cc1cc(C[C@@H](OC(=O)N2CCC(c3cc4ccccc4[nH]c3=O)CC2)C(=O)N2CCN(c3ccc(F)cc3)CC2)cc2cn[nH]c12`, for which the IC50 in data set [1] worked out at 0.13 nM.
With `Cc1cc(C[C@@H](OC(=O)N2CCC(c3cc4ccccc4[nH]c3=O)CC2)C(=O)N2CCC(N3CCCCC3)CC2)cc2cn[nH]c12`, the IC50 in data set [1] was determined as 0.017 nM. Further, the solubility in data set [7] is greater than 50 mg/mL. In addition, the remaining at 48 h, 0.15 mg/mL in data set [5] was found to be 97%. In addition, the remaining at 672 h, 0.15 mg/mL in data set [6] came to 99%.
Turning to `Cc1cc(C[C@@H](OC(=O)N2CCC(c3cc4ccccc4[nH]c3=O)CC2)C(=O)N2CCN(c3ccncc3)CC2)cc2cn[nH]c12`, in data set [1], the IC50 worked out at 0.063 nM.
Same read-out and setting: next, `Cc1cc(C[C@@H](OC(=O)N2CCC(N3Cc4cccc(F)c4NC3=O)CC2)C(=O)N2CCC(N3CCCCC3)CC2)cc2cn[nH]c12`: 0.011 nM.
